According to ChEMBL document CHEMBL1201862, “PubChem BioAssay data set” (2004):
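These data come from cells grown in 96-well plates and exposed to compound for 48 hours at five concentrations. At the GI50, growth is halved.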 Active and inactive are the calls of the source. Cut-off read from the data, not from the text of the source: active = GI50 up to about 1.1 µM and inactive = higher.

What was measured:
Test in all cases: DTP human tumour cell line panel, 48 h
SF-268 = system: SF-268
BT-549 = system: BT-549
ACHN = system: ACHN
COLO 205 = system: COLO 205
MCF7 = system: MCF7
HCC 2998 = system: HCC 2998
NCI/ADR-RES = system: NCI/ADR-RES
KM12 = system: KM12
786-0 = system: 786-0
OVCAR-8 = system: OVCAR-8
SK-OV-3 = system: SK-OV-3
SK-MEL-28 = system: SK-MEL-28
SF-539 = system: SF-539
TK-10 = system: TK-10
UO-31 = system: UO-31
SR = system: SR
SNB-19 = system: SNB-19
RPMI-8226 = system: RPMI-8226
SF-295 = system: SF-295
NCI-H460 = system: NCI-H460

Measured: GI50

CC1=C(C(=O)NCC(C)O)CC(C(=O)NCC(C)O)=C(C)N1 (stereo not given)
inactive: SF-268 > 100 µM | BT-549 > 100 µM | ACHN > 100 µM | COLO 205 > 100 µM | MCF7 > 100 µM | HCC 2998 > 100 µM | NCI/ADR-RES > 100 µM | KM12 > 100 µM | 786-0 > 100 µM | OVCAR-8 > 100 µM | SK-OV-3 > 100 µM | SK-MEL-28 > 100 µM | SF-539 > 100 µM | TK-10 > 100 µM | UO-31 > 100 µM | SR > 100 µM | SNB-19 > 100 µM | RPMI-8226 > 100 µM | SF-295 > 100 µM | NCI-H460 > 100 µM

COC(=O)/C=C\C(C#N)(C#N)/N=C/c1cc(Br)cs1
inactive: SF-268 6.1 µM | BT-549 7.08 µM | ACHN 2.22 µM | COLO 205 1.98 µM | MCF7 1.51 µM | HCC 2998 16 µM | NCI/ADR-RES 15.7 µM | KM12 21 µM | 786-0 1.94 µM | OVCAR-8 3.84 µM | SK-OV-3 19.5 µM | SK-MEL-28 5.32 µM | SF-539 4.8 µM | TK-10 3.11 µM | UO-31 2.14 µM | SR 2.32 µM | SNB-19 18.5 µM | RPMI-8226 3.24 µM | SF-295 17.9 µM | NCI-H460 19.6 µM

COc1ccc2c(c1)C(=O)C(=O)c1cc(O)c(OC)c(OC)c1-2
active: SF-268 1 µM | BT-549 0.718 µM | ACHN 0.893 µM | MCF7 0.902 µM | NCI/ADR-RES 1.03 µM | KM12 0.979 µM | 786-0 0.836 µM | OVCAR-8 0.875 µM | SK-MEL-28 0.845 µM | TK-10 1.01 µM | UO-31 0.925 µM | SR 0.818 µM | SNB-19 1.01 µM | RPMI-8226 1.09 µM | SF-295 0.805 µM
inactive: COLO 205 1.31 µM | HCC 2998 4.55 µM | SK-OV-3 1.5 µM | SF-539 1.85 µM | NCI-H460 3.02 µM

O=C1c2c(Br)sc(Br)c2[C@H]2NC(=S)O[C@@H]12
inactive: SF-268 15 µM | BT-549 16.5 µM | ACHN 17.7 µM | COLO 205 13.4 µM | MCF7 16.1 µM | HCC 2998 20.5 µM | NCI/ADR-RES 21.4 µM | KM12 17.9 µM | 786-0 14.2 µM | OVCAR-8 9.82 µM | SK-OV-3 18.7 µM | SK-MEL-28 13.2 µM | SF-539 17.9 µM | TK-10 29.6 µM | UO-31 15.3 µM | SR 2.41 µM | SNB-19 21.7 µM | RPMI-8226 7.38 µM | SF-295 20.6 µM | NCI-H460 18.6 µM

O=[N+]([O-])c1ccc(Cl)cc1N/N=C/c1cccs1
inactive: SF-268 > 100 µM | BT-549 > 100 µM | ACHN > 100 µM | COLO 205 > 100 µM | MCF7 9.95 µM | HCC 2998 > 100 µM | NCI/ADR-RES > 100 µM | KM12 > 100 µM | 786-0 > 100 µM | OVCAR-8 > 100 µM | SK-OV-3 > 100 µM | SK-MEL-28 > 100 µM | SF-539 > 100 µM | TK-10 > 100 µM | UO-31 > 100 µM | SR > 100 µM | SNB-19 > 100 µM | RPMI-8226 > 100 µM | SF-295 > 100 µM | NCI-H460 > 100 µM

N=C(N)N/N=C/c1c(-c2ccc(Cl)cc2)nc2n1CCS2
inactive: SF-268 11.5 µM | BT-549 14.5 µM | ACHN 14.1 µM | COLO 205 4.38 µM | MCF7 11.5 µM | HCC 2998 3.04 µM | NCI/ADR-RES 16.4 µM | KM12 10.9 µM | 786-0 4.31 µM | OVCAR-8 15.2 µM | SK-OV-3 13.9 µM | SK-MEL-28 12.7 µM | SF-539 11.7 µM | TK-10 15.7 µM | UO-31 12.7 µM | SR 7.16 µM | SNB-19 15.6 µM | RPMI-8226 7.53 µM | SF-295 3.53 µM | NCI-H460 13.1 µM

CN(C)/C=N/S(=O)(=O)c1nn2c(C=O)c(-c3ccc([N+](=O)[O-])cc3)nc2s1
inactive: SF-268 13.6 µM | BT-549 3.79 µM | ACHN 2.03 µM | COLO 205 3.18 µM | MCF7 4.68 µM | HCC 2998 17.4 µM | NCI/ADR-RES 8.85 µM | KM12 9.12 µM | 786-0 2.29 µM | OVCAR-8 3.67 µM | SK-OV-3 53.7 µM | SK-MEL-28 4.23 µM | SF-539 8.11 µM | TK-10 5.73 µM | UO-31 2.61 µM | SR 2.06 µM | SNB-19 28.6 µM | RPMI-8226 2.39 µM | SF-295 35.1 µM | NCI-H460 13.6 µM

CCc1n[nH]c(=O)n1N
inactive: SF-268 > 100 µM | BT-549 > 100 µM | ACHN > 100 µM | COLO 205 > 100 µM | MCF7 > 100 µM | HCC 2998 > 100 µM | NCI/ADR-RES > 100 µM | KM12 > 100 µM | 786-0 > 100 µM | OVCAR-8 > 100 µM | SK-OV-3 > 100 µM | SK-MEL-28 > 100 µM | SF-539 > 100 µM | TK-10 > 100 µM | UO-31 > 100 µM | SR > 100 µM | SNB-19 > 100 µM | RPMI-8226 > 100 µM | SF-295 > 100 µM | NCI-H460 > 100 µM

O=C(O)Cc1cccc2c(=O)cc(-c3ccccc3)oc12 [MITOFLAXONE]
inactive: SF-268 > 250 µM | BT-549 204 µM | ACHN > 250 µM | COLO 205 > 250 µM | MCF7 236 µM | HCC 2998 > 250 µM | NCI/ADR-RES 222 µM | KM12 240 µM | 786-0 71.4 µM | OVCAR-8 > 175 µM | SK-OV-3 242 µM | SK-MEL-28 > 250 µM | SF-539 > 250 µM | TK-10 > 250 µM | UO-31 147 µM | SR 321 µM | SNB-19 > 250 µM | RPMI-8226 244 µM | SF-295 242 µM | NCI-H460 > 250 µM

O=C(O)CCc1nc2c(n1Cc1ccccc1)C(=O)c1ccccc1C2=O
inactive: SF-268 60.5 µM | BT-549 > 100 µM | ACHN > 100 µM | COLO 205 33.9 µM | MCF7 43.8 µM | HCC 2998 > 100 µM | NCI/ADR-RES 59.6 µM | KM12 52.4 µM | 786-0 > 100 µM | OVCAR-8 49.4 µM | SK-OV-3 69.3 µM | SK-MEL-28 > 100 µM | SF-539 28.1 µM | TK-10 34.1 µM | UO-31 30.8 µM | SR 51.4 µM | SNB-19 > 100 µM | RPMI-8226 39 µM | SF-295 59.6 µM | NCI-H460 37.9 µM

N=C(N)NS(=O)(=O)c1ccc(NC(=O)c2cccc3c(NNc4ccc(S(=O)(=O)N=C(N)N)cc4)c4ccccc4nc23)cc1
inactive: SF-268 61.9 µM | BT-549 33.3 µM | ACHN 75 µM | COLO 205 92.7 µM | MCF7 29.9 µM | HCC 2998 90.6 µM | NCI/ADR-RES > 100 µM | KM12 > 100 µM | 786-0 44.2 µM | OVCAR-8 53.5 µM | SK-OV-3 > 100 µM | SK-MEL-28 37.2 µM | SF-539 > 100 µM | TK-10 > 100 µM | UO-31 > 100 µM | SR 32.6 µM | SNB-19 76.7 µM | RPMI-8226 37.9 µM | SF-295 > 100 µM | NCI-H460 32.7 µM

CC1(C)Cc2nc3c(cc2C(=O)C1/C=N/C(C#N)=C(\N)C#N)C(=O)C(/C=N/C(C#N)=C(\N)C#N)C(C)(C)C3 (stereo not given)
inactive: SF-268 1.64 µM | BT-549 2.19 µM | ACHN 2.28 µM | COLO 205 2.54 µM | MCF7 2.15 µM | HCC 2998 4.52 µM | NCI/ADR-RES 6.47 µM | KM12 1.77 µM | 786-0 1.84 µM | OVCAR-8 2.36 µM | SK-OV-3 3.02 µM | SK-MEL-28 1.98 µM | SF-539 1.18 µM | TK-10 4.8 µM | UO-31 1.84 µM | SR 3.08 µM | SNB-19 4.68 µM | RPMI-8226 2.74 µM | SF-295 2.54 µM | NCI-H460 2.61 µM

NC(=O)NO [HYDROXYUREA]
inactive: SF-268 524 µM | BT-549 1660 µM | ACHN 108 µM | COLO 205 1740 µM | MCF7 385 µM | HCC 2998 679 µM | NCI/ADR-RES 390 µM | KM12 902 µM | 786-0 303 µM | OVCAR-8 504 µM | SK-OV-3 1680 µM | SK-MEL-28 1920 µM | SF-539 315 µM | TK-10 1980 µM | UO-31 508 µM | SR 217 µM | SNB-19 1580 µM | RPMI-8226 277 µM | SF-295 313 µM | NCI-H460 344 µM

C[C@@]12C(=O)OC(=O)[C@]1(C)[C@H]1CC[C@@H]2O1 [CANTHARIDIN]
inactive: SF-268 1.77 µM | BT-549 1.7 µM | ACHN 1.18 µM | MCF7 7.76 µM | HCC 2998 1.53 µM | NCI/ADR-RES 6.5 µM | KM12 5.42 µM | 786-0 1.74 µM | OVCAR-8 5.98 µM | SK-OV-3 2.17 µM | SK-MEL-28 3.48 µM | SF-539 2.04 µM | UO-31 2.64 µM | SR 2.61 µM | RPMI-8226 2.08 µM | SF-295 1.37 µM | NCI-H460 2.72 µM
active: COLO 205 0.427 µM | TK-10 0.313 µM | SNB-19 1.1 µM
